Legend:
Format in all cases: cell membranes
[1] = biological target: T1, Cannabinoid receptor 1 (Rattus norvegicus, UniProt P20272); assay: Binding affinity towards cannabinoid CB1 receptor in rat brain membrane by displacement of [3H]SR-141,716A
[2] = biological target: T1, Cannabinoid receptor 1; assay: Binding affinity towards cannabinoid CB1 receptor in rat brain membrane by displacement of [3H]SR-141,716A at 50 uM
[3] = biological target: Cannabinoid receptor 1 (Rattus norvegicus) (UniProt P20272); assay: Binding affinity towards CB1 receptor in rat brain membrane by displacement of [3H]SR-141,716A relative to HU-210
Chain of Cannabinoid receptor 1 (Rattus norvegicus) (P20272 whole entry): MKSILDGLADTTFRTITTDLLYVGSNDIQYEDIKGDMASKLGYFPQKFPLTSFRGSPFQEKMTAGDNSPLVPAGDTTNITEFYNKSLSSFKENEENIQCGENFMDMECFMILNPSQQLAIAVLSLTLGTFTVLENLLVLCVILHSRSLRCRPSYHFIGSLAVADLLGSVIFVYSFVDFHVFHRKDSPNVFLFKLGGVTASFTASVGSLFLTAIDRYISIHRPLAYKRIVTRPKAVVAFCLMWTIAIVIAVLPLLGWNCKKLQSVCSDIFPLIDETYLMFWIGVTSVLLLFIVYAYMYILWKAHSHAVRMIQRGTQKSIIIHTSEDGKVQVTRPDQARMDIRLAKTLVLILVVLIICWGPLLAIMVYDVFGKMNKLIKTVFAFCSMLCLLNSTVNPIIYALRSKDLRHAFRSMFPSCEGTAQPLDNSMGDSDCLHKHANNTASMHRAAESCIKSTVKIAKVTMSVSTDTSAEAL

T1 sequence (P20272 whole entry): as above

Structure (SMILES)	Ki [1] [µM]	Ki [2] [µM]	Krel [3]
CCCCC/C=C\C/C=C\C/C=C\C/C=C\CCCCOCC(O)CO (stereo in doubt; 5a) [listing 1 of 2 here]	5		
CCCCCCCC/C=C\CCCCCCCCCCCCOC(CO)CO		> 50	> 12500
CCCCCCCCCCCCCCCCOC(CO)CO	> 50		> 12500
CCCCCCCC/C=C\CCCCCCCCOC(CO)CO	25.6		6400
CCCCC/C=C\C/C=C\C/C=C\CCCCCOC(CO)CO	13.9		3480
CCCCC/C=C\C/C=C\CCCCCCCCOC(CO)CO	22.5		5620
CCCCCCCC[C@@H]1C[C@@H]1CCCCCCCCCCCCOC(CO)CO (single isomer, unassigned)	> 50		> 125000
CC(C)=CCC/C(C)=C/CC/C(C)=C/COC(CO)CO	> 50		> 12500
CCCCC/C=C\C/C=C\C/C=C\C/C=C\CCCCOCC(O)CO (stereo in doubt; 5b)			625
CC(C)=CCC/C(C)=C/COC(CO)CO	> 50		> 12500
CCCCCC/C=C/C#CCCCCCCCCOC(CO)CO		> 50	> 125000
CCCCCCCC[C@@H]1C[C@@H]1CCCCCCCCOC(CO)CO	> 50		> 125000
CCCCCC[C@@H]1C[C@@H]1C#CCCCCCCCCOC(CO)CO	> 50		> 125000
CCCCC/C=C\C/C=C\C/C=C\C/C=C\CCCCOCC(O)CO (stereo in doubt; 5a) [listing 2 of 2 here]			1250
CC(C)=CCC/C(C)=C/COCC(O)CO (centres undefined)	> 50		> 12500
CCCCCCCCCCCCCCCCOCC(O)CO (centres undefined)	> 50		> 12500
